By melting point is commonly meant the temperature, or range, at which the solid turns liquid.

We go through 120 molecules from a melting point compilation (Tetko et al.).

Structures are written as SMILES.

`O=C(CCl)NCc1ccc(Cl)cc1` showed a melting point of 107 to 109 °C.

The molecule `O=C(O)c1ccccc1NC(=O)C(F)(F)F` had a melting point of 167 to 169 °C.

As for `Cc1ccc(Oc2ccc(N)cc2)cc1`, the melting point was 118 to 122 °C.

Molecule `CCOC(=O)c1noc(-c2cccc(F)c2-n2ccnc2)n1` had a melting point of 128 to 130 °C.

In the case of `NC(=O)Nc1ccccc1Oc1ccccc1`, the melting point is 182 to 184 °C.

For the molecule `O=C(O)CCCN1C(=O)CNC1=O`, the melting point is 151 to 153 °C.

For the molecule `Cc1c(N2CCOC2=O)cccc1[N+](=O)[O-]`, the melting point was 67 to 69 °C.

The molecule `Cn1cnnc1SCC(=O)Nc1cccc(C(=O)O)c1` registered a melting point of 231 to 233 °C.

Turning to `Cc1cc(C(=O)CCl)c(C)n1-c1ccc(OC(F)(F)F)cc1`, the melting point fell in the range of 76 to 80 °C.

Regarding `Cn1cc(-c2nnc(N)o2)cn1`, the melting point was 253 to 255 °C.

The molecule `Nc1cccc(NC(=O)c2cccs2)c1` returned a melting point of 134 to 136 °C.

In turn, `Oc1ccnc2c(OC(F)(F)F)cccc12` showed a melting point of 145 to 147 °C.

`CC(C)c1ccc(CCC(N)=O)cc1` gave a melting point of 142 to 144 °C.

Take `Nc1nnc(N2CCC(C(=O)O)CC2)[nH]1`: the melting point was 264 to 266 °C.

As to `CCOC(=O)/C(C#N)=C/Nc1ccc(OCC)cc1`, the melting point fell in the range of 115 to 117 °C.

As to `O=C(O)c1ccc2c(c1)S(=O)(=O)N(CC1CCCO1)C2=O` (stereo not given), the melting point lay in the range of 159 to 161 °C.

Molecule `CCOC(=O)c1sc(N)c(C#N)c1C` displayed a melting point of 212 to 214 °C.

As to `CNC(=O)c1c(Cl)ccc(S(=O)(=O)NC)c1Cl`, the melting point was 231 to 233 °C.

In turn, `Nc1onc(C2CCC2)c1-c1ccc2c(c1)OCO2` showed a melting point of 96 to 98 °C.

As for `O=C(O)C1CCCCN1C(=O)OCc1ccccc1` (stereo not given), the melting point fell in the range of 86 to 88 °C.

In turn, `O=C(O)C=Cc1ccc(Oc2cccnc2)c(F)c1` gave a melting point of 202 to 204 °C.

`COC(=O)Nc1ccc(Br)cc1` had a melting point of 122 to 124 °C.

In the case of `Cc1cc(C=O)c(C)n1-c1ccc(F)cc1`, the melting point fell in the range of 100 to 102 °C.

Regarding `COc1ccccc1Nc1ncccc1C(=O)O`, the melting point fell in the range of 175 to 177 °C.

As to `CC1CNc2cc(Cl)ccc2O1` (stereo not given), the melting point fell in the range of 75 to 77 °C.

Consider `CC(=O)c1ccc2c(c1)C(C)(C)C(=O)N2`, for which the melting point is 187 to 189 °C.

With `Cc1ccc(CNC(=S)Nc2ccccc2)cc1`, the melting point was 147 to 149 °C.

Molecule `O=C(O)c1cccnc1SCc1cccc(Br)c1` showed a melting point of 186 to 188 °C.

The molecule `CC1(c2cccc(C(N)=O)c2)NC(=O)NC1=O` (stereo not given) returned a melting point of 225 to 227 °C.

With `CC(C)CN1C(=O)c2ccccc2N2C(=O)CCC12C(=O)O` (stereo not given), the melting point lay within 105 to 107 °C.

Molecule `O=C(O)c1oc2ccccc2c1CSC1CCCCC1` yielded a melting point of 158 to 160 °C.

As for `Cc1nn(-c2ccccc2)c(Cl)c1C(=O)O`, the melting point lay in the range of 232 to 234 °C.

In the case of `O=Cc1cc(O)c(O)c(Br)c1`, the melting point lay within 219 to 221 °C.

As for `CC(NS(=O)(=O)c1cnn(C)c1)C(=O)O` (stereo not given), the melting point lay in the range of 169 to 171 °C.

As for `Cc1ccccc1Cc1nn[nH]n1`, the melting point fell in the range of 156 to 158 °C.

The molecule `CS(=O)CCC(=O)O` (stereo not given) came in with a melting point of 57 to 59 °C.

In turn, `NC(C(=O)O)(c1cccc(C(F)(F)F)c1)C(F)(F)F` (stereo not given) yielded a melting point of 119 to 121 °C.

As to `NS(=O)(=O)CCCCl`, the melting point lay in the range of 63 to 65 °C.

Turning to `O=C(O)Cc1ccc(OC(F)F)cc1`, the melting point was in the range of 78 to 80 °C.

Regarding `CS(=O)(=O)NCc1ccccc1`, the melting point was in the range of 49 to 51 °C.

Turning to `Cc1ccc(CN)c(S(C)(=O)=O)c1`, the melting point lay in the range of 32 to 34 °C.

Molecule `CC(C)N1C2CCC1CC(O)C2` (stereo not given) came in with a melting point of 90 to 92 °C.

As for `Oc1cccc(Oc2ncccn2)c1`, the melting point was in the range of 192 to 194 °C.

Take `N#Cc1ccc(NCCC(N)=O)c(F)c1`: the melting point lay within 156 to 158 °C.

`COC(=O)COc1ccc(N)c(C)c1` displayed a melting point of 104 to 106 °C.

Molecule `c1ccc(C2NCCn3cccc32)cc1` (stereo not given) had a melting point of 72 to 74 °C.

Regarding `COC(=O)Nc1ccccc1O`, the melting point fell in the range of 120 to 122 °C.

Turning to `O=C(O)c1cn(Cc2ccccc2)nc1-c1ccccc1`, the melting point lay within 189 to 191 °C.

On to `Cc1nn(C(C)(C)C)c(C)c1C(=O)O`, for which the melting point was 158 to 160 °C.

Molecule `N#CCC(=O)Nc1ccc(C(=O)O)cc1` showed a melting point of 195 to 197 °C.

Take `CSc1ccc2cc(CCl)c(Cl)nc2c1`: the melting point was in the range of 151 to 153 °C.

As for `COc1ccc(C(O)CCC(=O)O)cc1` (stereo not given), the melting point lay in the range of 92 to 94 °C.

`CC(O)(C(=O)O)c1ccc(Cl)cc1` (stereo not given) returned a melting point of 129 to 131 °C.

`Cc1cc(N)n(N)c(=O)c1` registered a melting point of 193 to 195 °C.

As for `Cc1noc(C(F)(F)F)c1C(=O)O`, the melting point is 140 to 142 °C.

The molecule `Cc1cc(N(C)C)ccc1C#N` came in with a melting point of 59 to 61 °C.

For `O=C(O)c1cc(Cl)nc2ccccc12`, the melting point lay within 187 to 189 °C.

As to `Nc1nc(CN2CCCCC2)cs1`, the melting point was 153 to 155 °C.

Consider `CCc1cc(=O)[nH]c(-c2ccncc2)n1`, for which the melting point is 172 to 174 °C.

In turn, `Cc1nnnn1-c1cc(N)ccc1C(=O)O` came in with a melting point of 203 to 205 °C.

As to `O=C1CCc2c(Cl)cccc21`, the melting point lay in the range of 84 to 86 °C.

`O=Cc1ccccc1S(=O)(=O)N1CCOCC1` returned a melting point of 97 to 99 °C.

In the case of `CCCC(NCCC(=O)Nc1cc(C)on1)C(=O)O` (stereo not given), the melting point fell in the range of 227 to 229 °C.

Consider `O=C1CCCN1c1cccc([N+](=O)[O-])c1`, for which the melting point is 107 to 109 °C.

`CCOc1ccc(S(=O)(=O)N(C)c2ccc(OCC(=O)O)cc2)cc1` showed a melting point of 82 to 84 °C.

For `Sc1nnc(-c2ccco2)n1-c1ccccc1`, the melting point lay in the range of 121 to 123 °C.

`Cc1cc(C)n(Cc2cccc(C(N)=NO)c2)n1` returned a melting point of 137 to 139 °C.

Turning to `O=Cc1ccc(-c2ccc(Br)cc2)s1`, the melting point lay in the range of 110 to 112 °C.

`Cc1noc2ncnc(N)c12`: the melting point was in the range of 269 to 271 °C.

`O=C(CCl)Nc1cc(-n2cnnn2)ccc1Cl` came in with a melting point of 179 to 181 °C.

The molecule `Cc1ccc(NC2=NC(C)(C)CS2)cc1` displayed a melting point of 164 to 166 °C.

In the case of `O=C(CC(=O)NCC1CCCO1)NCC1CCCO1` (stereo not given), the melting point was 77 to 79 °C.

Consider `COc1ccc(Cl)cc1CO`, for which the melting point fell in the range of 56 to 61 °C.

In turn, `CCOc1ccc(S(=O)(=O)Nc2ccc(C(=O)O)cc2)cc1` returned a melting point of 226 to 228 °C.

`Cc1cc(C(=O)O)cc(S(=O)(=O)N2CCC(C)CC2)c1C` gave a melting point of 176 to 178 °C.

The molecule `Cc1c(CC#N)cccc1[N+](=O)[O-]` displayed a melting point of 79 to 81 °C.

The molecule `O=C(O)C1CC(c2ccc(Cl)cc2)C1` (stereo not given) displayed a melting point of 119 to 121 °C.

`COc1cc(C=O)ccc1OCC(=O)O` gave a melting point of 184 to 186 °C.

As for `O=C(O)c1ccc(OCC2CCCO2)cc1` (stereo not given), the melting point fell in the range of 130 to 132 °C.

`COc1cccc(C(=O)CC#N)c1`: the melting point is 84 to 86 °C.

Turning to `CNS(=O)(=O)Cc1ccccc1CN`, the melting point is 130 to 132 °C.

On to `O=CC1=C(N2CCOCC2)C(=Cc2ccccc2)CC1`, for which the melting point is 141 to 143 °C.

Consider `CC(C)(N)c1nnn[nH]1`, for which the melting point lay in the range of 251 to 253 °C.

`Cc1ccc(NS(=O)(=O)c2ccc(C(=O)O)cc2)cc1`: the melting point was 285 to 287 °C.

The molecule `Cc1cccc(NS(=O)(=O)c2cc(C(=O)O)c(Cl)cc2Cl)c1` had a melting point of 172 to 174 °C.

On to `Cc1nc2sccc2c(=O)n1N`, for which the melting point was in the range of 181 to 183 °C.

Regarding `Cc1cc(C(=O)O)c2cnn(C(C)C)c2n1`, the melting point lay in the range of 172 to 174 °C.

Molecule `NC(=O)Nc1ccc(Br)cc1C(=O)O` registered a melting point of 171 to 173 °C.

As for `NCC(O)c1ccc(Cl)c(F)c1` (stereo not given), the melting point is 54 to 56 °C.

On to `O=C(O)c1ccccc1Nc1ccc(OC(F)F)cc1`, for which the melting point fell in the range of 153 to 155 °C.

`CC(C)NC(=O)c1ccccc1N` had a melting point of 148 to 150 °C.

For `Nc1nc(Cl)ccc1Cl`, the melting point was 94 to 96 °C.

Turning to `NNc1ccc(Cl)nc1`, the melting point lay within 131 to 133 °C.

Molecule `N#Cc1ncn(CC(N)=O)n1` registered a melting point of 194 to 196 °C.

Molecule `CC1CNc2ccccc2CN1C(=O)OC(C)(C)C` (stereo not given) had a melting point of 158 to 160 °C.

`O=C(O)C(Cn1ccc(C(F)(F)F)n1)NC1CC1` (stereo not given) came in with a melting point of 175 to 177 °C.

Molecule `Nc1ccc(C(=O)N2CCOCC2)c(Cl)c1` returned a melting point of 205 to 207 °C.

As for `COc1ccc2nc(C)c(C(=O)O)cc2c1`, the melting point is 221 to 223 °C.

Molecule `CC(Cl)c1nnc(-c2ccc(F)cc2)o1` (stereo not given) displayed a melting point of 67 to 69 °C.

For `Fc1ccc(NCc2cccnc2)cc1`, the melting point fell in the range of 89 to 91 °C.

As to `N#Cc1ccc(-n2cnc3ccccc32)cc1`, the melting point is 135 to 137 °C.

`Cc1cc(Cl)nc(-c2ccncc2)n1` came in with a melting point of 119 to 121 °C.

Turning to `O=[N+]([O-])c1cccc2c1NCCC2`, the melting point was in the range of 69 to 71 °C.

For the molecule `CCc1ccccc1-n1cc(O)c(C(=O)O)n1`, the melting point lay in the range of 101 to 103 °C.

On to `NCc1ccc(OCCCOc2ccc(Cl)cc2Cl)cc1`, for which the melting point lay in the range of 51 to 53 °C.

For the molecule `O=C(Cc1ccc2ccccc2c1)NO`, the melting point fell in the range of 185 to 187 °C.

In the case of `Cc1nn(-c2ccc(F)cc2)c2sc(C(=O)O)cc12`, the melting point was 205 to 210 °C.

`CC(C)C(C)(CC(=O)N1CCOCC1)C(=O)O` (stereo not given): the melting point was 134 to 136 °C.

Turning to `CC(C)CN1C(=O)C(=O)c2ccccc21`, the melting point is 82 to 84 °C.

Regarding `COc1cc(C=O)c([N+](=O)[O-])cc1OCC(F)(F)F`, the melting point fell in the range of 150 to 152 °C.

In turn, `O=C(O)CCC(=O)Nc1sc2c(c1C(=O)NCC1CCCO1)CCCC2` (stereo not given) displayed a melting point of 151 to 153 °C.

For the molecule `Sc1nc(-c2cccs2)no1`, the melting point was 108 to 110 °C.

Turning to `NCc1cccc(S(=O)(=O)NCc2cccc(F)c2)c1`, the melting point fell in the range of 101 to 103 °C.

Consider `NC(=O)Cn1ccc([N+](=O)[O-])n1`, for which the melting point fell in the range of 159 to 161 °C.

The molecule `N#Cc1ccc(Br)cc1[N+](=O)[O-]` showed a melting point of 91 to 93 °C.

`O=C(CCl)Nc1ccc(S(=O)(=O)N2CCCC2)cc1` gave a melting point of 185 to 187 °C.

`NC(=O)c1cncs1` returned a melting point of 194 to 196 °C.

As for `C=CCn1c(=S)sc2c(=O)[nH]cnc21`, the melting point lay within 216 to 218 °C.

Turning to `Cc1cc(C)cc(OCCN(C)C(=O)CCl)c1`, the melting point was in the range of 70 to 72 °C.

As for `CC1(C)CCC(C)(O)CC1`, the melting point lay in the range of 49 to 51 °C.
